This is an account of results in ChEMBL document CHEMBL5055654, “Discovery of 5-methylpyrimidopyridone analogues as selective antimycobacterial agents” (Bioorg Med Chem, 2021).

The test system of test [1] is Mycobacterium tuberculosis. Put plainly: Antitubercular activity against Mycobacterium tuberculosis mc2 6230 assessed as inhibition of bacterial growth incubated for 7 days. The note with it: mc2 6230, 168 h, time 7 day. Type of test: functional.
Test [2] is described as follows: Binding affinity to Mycobacterium tuberculosis PknB.
In test [3] the test system is Escherichia coli. Briefly: Antibacterial activity against Escherichia coli at 10 uM incubated for 16 hrs by microtiter reader analysis. Type of test: functional, organism-based.
For test [4], the system named is Salmonella. Briefly: Antibacterial activity against Salmonella at 10 uM incubated for 16 hrs by microtiter reader analysis. Type of test: functional, organism-based.
The test system of test [5] is Vero. Put plainly: Cytotoxicity against African green monkey Vero cells assessed as reduction in cell viability measured after 72 hrs by CCK8 assay. It is filed as cell-based. Particulars: Chlorocebus sabaeus. (Tetrazolium dyes change colour on reduction, which living cells bring about.)

Converted amounts (≈) assume the structure as drawn. The source made the active and inactive calls. No cut-off for these calls is given here. Where only a bound is given, the exact number is not on record here.

As for `Cc1cc(Nc2ncc3c(C)c(-c4cccc(Cl)c4)c(=O)n(C45CC6CC(CC(C6)C4)C5)c3n2)ccc1N1CCC(N(C)C)CC1`, the MIC (in general, the least concentration at which growth counts as inhibited) in test [1] was above 512 µM. Regarding `Cc1c(-c2ccccc2Cl)c(=O)n(C23CC4CC(CC(C4)C2)C3)c2nc(NC[C@H]3CCCO3)ncc12`, the minimum inhibitory concentration (MIC) in test [1] is above 512 µM.

On to `Cc1c(-c2ccccc2Cl)c(=O)n(C23CC4CC(CC(C4)C2)C3)c2nc(N3CCC(N(C)C)CC3)ncc12`, for which the MIC in test [1] was found to be 16 µM (≈ 8.51 µg/mL). In the case of `COc1cc(Nc2ncc3c(C)c(-c4ccccc4Cl)c(=O)n(C45CC6CC(CC(C6)C4)C5)c3n2)ccc1N1CCN(C)CC1`, in test [1], the minimal inhibitory concentration (MIC) turned out to be 8 µM (≈ 5 µg/mL). For the same compound, binding in test [2] was characterised by a dissociation constant (Kd) of 0.75 µM. Turning to `Cc1cc(Nc2ncc3c(C)c(-c4ccc(Cl)cc4)c(=O)n(C45CC6CC(CC(C6)C4)C5)c3n2)ccc1N1CCC(N(C)C)CC1`, in test [1], the MIC is above 512 µM. Same read-out and setting: to `Cc1c(-c2ccccc2Cl)c(=O)n(C23CC4CC(CC(C4)C2)C3)c2nc(Nc3ccc(N4CCN(C)CC4)cc3)ncc12` belongs 512 µM (≈ 305 µg/mL); to `NNC(=O)c1ccncc1` [ISONIAZID], 0.2 µM (≈ 0.0274 µg/mL). The same measure, in the same setting: to `Cc1cc(Nc2ncc3c(C)c(-c4ccccc4F)c(=O)n(C45CC6CC(CC(C6)C4)C5)c3n2)ccc1N1CCC(N(C)C)CC1` belongs 32 µM (≈ 19.9 µg/mL).

`COCCNc1ncc2c(C)c(-c3ccccc3Cl)c(=O)n(C34CC5CC(CC(C5)C3)C4)c2n1`: the MIC in test [1] is above 512 µM. The same measure, in the same setting: to `Cc1cc(Nc2ncc3c(C)c(-c4ccccc4)c(=O)n(C45CC6CC(CC(C6)C4)C5)c3n2)ccc1N1CCC(N(C)C)CC1` belongs 16 µM (≈ 9.65 µg/mL). The same measure, in the same setting: to `COc1ccccc1-c1c(C)c2cnc(Nc3ccc(N4CCC(N(C)C)CC4)c(C)c3)nc2n(C23CC4CC(CC(C4)C2)C3)c1=O` belongs 16 µM (≈ 10.1 µg/mL).

On to `Cc1cc(Nc2ncc3c(C)c(-c4ccccc4Cl)c(=O)n(C45CC6CC(CC(C6)C4)C5)c3n2)ccc1N1CCC(C)CC1`, for which, in test [1], the MIC was above 512 µM.

For the compound `CCCCNc1ncc2c(C)c(-c3ccccc3Cl)c(=O)n(C34CC5CC(CC(C5)C3)C4)c2n1`, the MIC in test [1] was 512 µM (≈ 244 µg/mL). The same measure, in the same setting: to `COc1nc2ccc(Br)cc2cc1[C@@H](c1ccccc1)[C@@](O)(CCN(C)C)c1cccc2ccccc12` [BEDAQUILINE] belongs 0.02 µM (≈ 0.0111 µg/mL). As for `Cc1c(-c2ccccc2Cl)c(=O)n(C23CC4CC(CC(C4)C2)C3)c2nc(N3CCN(C)CC3)ncc12`, the minimal inhibitory concentration (MIC) in test [1] was above 512 µM. Still for that read-out and setting: next, `Cc1c(-c2ccccc2Cl)c(=O)n(C23CC4CC(CC(C4)C2)C3)c2nc(N3CCC(N4CCOCC4)CC3)ncc12`: above 512 µM. In the case of `CCOc1cc(Nc2ncc3c(C)c(-c4ccccc4Cl)c(=O)n(C45CC6CC(CC(C6)C4)C5)c3n2)ccc1N1CCN(C)CC1`, the MIC in test [1] was 8 µM (≈ 5.11 µg/mL). The outcome in test [3] and in test [4] was inactive. The IC50 (as a rule, the concentration that gives 50% inhibition) in test [5] worked out at 4.4 µM. Turning to `CCNc1ncc2c(C)c(-c3ccccc3Cl)c(=O)n(C34CC5CC(CC(C5)C3)C4)c2n1`, the minimum inhibitory concentration (MIC) in test [1] was 256 µM (≈ 115 µg/mL). `Cc1c(-c2ccccc2Cl)c(=O)n(C23CC4CC(CC(C4)C2)C3)c2nc(NC3CCCC3)ncc12`: in test [1], the minimum inhibitory concentration (MIC) was determined as 265 µM (≈ 130 µg/mL). For the compound `Cc1cc(Nc2ncc3c(C)c(-c4ccccc4Cl)c(=O)n(C45CC6CC(CC(C6)C4)C5)c3n2)ccc1N1CCN(C)CC1`, the MIC in test [1] came out at 8 µM (≈ 4.87 µg/mL). For the same compound, the outcome in test [3] and in test [4] was inactive. Also, the IC50 in test [5] stood at 4.8 µM. Regarding `Cc1cc(Nc2ncc3c(C)c(-c4ccccc4C#N)c(=O)n(C45CC6CC(CC(C6)C4)C5)c3n2)ccc1N1CCC(N(C)C)CC1`, the MIC in test [1] is 16 µM (≈ 10 µg/mL). In the case of `Cc1cc(Nc2ncc3c(C)c(-c4ccccc4Cl)c(=O)n(C4CCCCC4)c3n2)ccc1N1CCC(N(C)C)CC1`, the MIC in test [1] was 32 µM (≈ 18.7 µg/mL). In the case of `Cc1c(-c2ccccc2Cl)c(=O)n(C23CC4CC(CC(C4)C2)C3)c2nc(N3CCN(CCO)CC3)ncc12`, the MIC in test [1] was 64 µM (≈ 34.2 µg/mL).

In the case of `Cc1c(-c2ccccc2Cl)c(=O)n(C23CC4CC(CC(C4)C2)C3)c2nc(N(C)CCO)ncc12`, the MIC in test [1] is above 512 µM. `Cc1cc(Nc2ncc3c(C)c(-c4ccccc4Cl)c(=O)n(C45CC6CC(CC(C6)C4)C5)c3n2)ccc1N1CCC(N(C)C)CC1`: the MIC in test [1] came to 4 µM (≈ 2.55 µg/mL). Besides, the result in test [3] and in test [4] was inactive. Further, the 50% inhibitory concentration (IC50) in test [5] amounted to 2.9 µM. In the case of `Cc1c(-c2ccccc2Cl)c(=O)n(C23CC4CC(CC(C4)C2)C3)c2nc(Nc3ccc(N4CCN(C)CC4)c(OC(C)C)c3)ncc12`, the MIC in test [1] turned out to be 8 µM (≈ 5.23 µg/mL). In addition, the result in test [3] and in test [4] was inactive. For the same compound, in test [5], the half-maximal inhibitory concentration (IC50) is 4.6 µM.

With `Cc1cc(Nc2ncc3c(C)c(-c4ccccc4Cl)c(=O)n(C45CC6CC(CC(C6)C4)C5)c3n2)ccc1N1CCN(CCO)CC1`, the minimum inhibitory concentration (MIC) in test [1] is 32 µM (≈ 20.5 µg/mL).

As to `Cc1c(-c2ccccc2Cl)c(=O)n(C23CC4CC(CC(C4)C2)C3)c2nc(NC(C)C)ncc12`, the minimal inhibitory concentration (MIC) in test [1] was determined as 256 µM (≈ 119 µg/mL).

For the compound `Cc1c(-c2ccccc2Cl)c(=O)n(C23CC4CC(CC(C4)C2)C3)c2nc(N3CC(OC(C)C)C3)ncc12`, the MIC in test [1] was above 512 µM. On the same count and under the same terms, next, `Cc1c(-c2ccccc2Cl)c(=O)n(C23CC4CC(CC(C4)C2)C3)c2nc(NC3CC3)ncc12`: 265 µM (≈ 122 µg/mL).

For `Cc1cc(Nc2ncc3c(C)c(-c4ccccc4Cl)c(=O)n(C4CCCC4)c3n2)ccc1N1CCC(N(C)C)CC1`, in test [1], the MIC was 32 µM (≈ 18.3 µg/mL). Consider `Cc1c(-c2ccccc2Cl)c(=O)n(C23CC4CC(CC(C4)C2)C3)c2nc(NC3CCCCC3)ncc12`, for which the MIC in test [1] amounted to 512 µM (≈ 258 µg/mL). Same read-out and setting: to `CCC(C)Nc1ncc2c(C)c(-c3ccccc3Cl)c(=O)n(C34CC5CC(CC(C5)C3)C4)c2n1` (stereo not given) belongs 512 µM (≈ 244 µg/mL); to `Cc1c(-c2ccccc2Cl)c(=O)n(C23CC4CC(CC(C4)C2)C3)c2nc(N3CCC(C)CC3)ncc12`, above 512 µM. For the compound `Cc1ccccc1-c1c(C)c2cnc(Nc3ccc(N4CCC(N(C)C)CC4)c(C)c3)nc2n(C23CC4CC(CC(C4)C2)C3)c1=O`, the minimum inhibitory concentration (MIC) in test [1] stood at 8 µM (≈ 4.93 µg/mL). On the same count and under the same terms, to `Cc1c(-c2ccccc2Cl)c(=O)n(C23CC4CC(CC(C4)C2)C3)c2nc(N3CCC(O)CC3)ncc12` belongs above 512 µM; to `Cc1c(-c2ccccc2Cl)c(=O)n(C23CC4CC(CC(C4)C2)C3)c2nc(NCCO)ncc12`, above 512 µM.
